PubChem BioAssay AID1963863 (Molecular Pharmacology Branch, DTP, NCI, 2024)

Tested on: 931267-113-T-J1-PDC KRAS spheroid with HUVEC/MSC, viability
Experiment: Anticancer human tumor 931267-113-T-J1-PDC patient-derived colon adenocarcinoma cell line growth inhibition [KRAS2]
Conditions: for IC50: curve of first compound; for viability, T/C: stronger effect = lower value
Summary of the method: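 KRAS-mutant tumor cells were grown as spheroids with HUVEC endothelial cells and human MSCs as stroma. Targeted agents were tested alone and with KRAS pathway inhibitors. Doses started at or near clinical Cmax, or 10 microM, descending half-log.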

[1] = second compound 0.1 µM, first compound 0.0316 µM
[2] = second compound 0.1 µM, first compound 0.1 µM
[3] = second compound 0.1 µM, first compound 0.316 µM
[4] = second compound 0.1 µM, first compound 1 µM
[5] = second compound 0.1 µM, first compound 3.16 µM
[6] = second compound 0.1 µM, first compound 10 µM
[7] = second compound 0.316 µM, first compound 0.0316 µM
[8] = second compound 0.316 µM, first compound 0.1 µM
[9] = second compound 0.316 µM, first compound 0.316 µM
[10] = second compound 0.316 µM, first compound 1 µM
[11] = second compound 0.316 µM, first compound 3.16 µM
[12] = second compound 0.316 µM, first compound 10 µM
[13] = second compound 1 µM, first compound 0.0316 µM
[14] = second compound 1 µM, first compound 0.1 µM
[15] = second compound 1 µM, first compound 0.316 µM
[16] = second compound 1 µM, first compound 1 µM
[17] = second compound 1 µM, first compound 3.16 µM
[18] = second compound 1 µM, first compound 10 µM
[19] = second compound 3.16 µM, first compound 0.0316 µM
[20] = second compound 3.16 µM, first compound 0.1 µM
[21] = second compound 3.16 µM, first compound 0.316 µM
[22] = second compound 3.16 µM, first compound 1 µM
[23] = second compound 3.16 µM, first compound 3.16 µM
[24] = second compound 3.16 µM, first compound 10 µM
[25] = second compound 10 µM, first compound 0.0316 µM
[26] = second compound 10 µM, first compound 0.1 µM
[27] = second compound 10 µM, first compound 0.316 µM
[28] = second compound 10 µM, first compound 1 µM
[29] = second compound 10 µM, first compound 3.16 µM
[30] = second compound 10 µM, first compound 10 µM
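Further: compound exposure lasted 7 days before the readout.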
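Wherever viability, T/C is given: 100% = DMSO vehicle control viability.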

SMILES | IC50 (second compound 0.1 µM) [µM] | IC50 (second compound 0.316 µM) [µM] | IC50 (second compound 1 µM) [µM] | IC50 (second compound 3.16 µM) [µM] | IC50 (second compound 10 µM) [µM] | viability, T/C [1] [%] | viability, T/C [2] [%] | viability, T/C [3] [%] | viability, T/C [4] [%] | viability, T/C [5] [%] | viability, T/C [6] [%] | viability, T/C [7] [%] | viability, T/C [8] [%] | viability, T/C [9] [%] | viability, T/C [10] [%] | viability, T/C [11] [%] | viability, T/C [12] [%] | viability, T/C [13] [%] | viability, T/C [14] [%] | viability, T/C [15] [%] | also measured
COC(=O)c1ccc2c(C(=Nc3ccc(N(C)C(=O)CN4CCN(C)CC4)cc3)c3ccccc3)c(O)[nH]c2c1 + COc1cc2nc(C)nc(NC(C)c3cc(N)cc(C(F)(F)F)c3)c2cc1OC1CCOC1 | 1.41 | 0.962 | 0.513 | 0.637 | < 0.0316 | 88.1 | 97.5 | 69.8 | 71.1 | 0.65 | 0.3 | 77.5 | 68.3 | 55.2 | 50 | 0.3 | 0.83 | 73 | 95.2 | 57.6 | viability, T/C [16]: 33.5%; viability, T/C [17]: 0.48%; viability, T/C [18]: 0.34%; viability, T/C [19]: 95.6%; viability, T/C [20]: 88.3%; viability, T/C [21]: 78.2%; viability, T/C [22]: 32.5%; viability, T/C [23]: 0.32%; viability, T/C [24]: 0.26%; viability, T/C [25]: 7.41%; viability, T/C [26]: 2.82%; viability, T/C [27]: 0.58%; viability, T/C [28]: 0.41%; viability, T/C [29]: 0.41%; viability, T/C [30]: 0.26%
COc1cc(Nc2ncc3c(n2)-c2ccc(Cl)cc2C(c2c(F)cccc2OC)=NC3)ccc1C(=O)O + COc1cc2nc(C)nc(NC(C)c3cc(N)cc(C(F)(F)F)c3)c2cc1OC1CCOC1 | > 10 | > 10 | > 10 | > 10 | 0.0539 | 102 | 85.6 | 80.7 | 79.5 | 87.8 | 57 | 86.5 | 93.5 | 75.3 | 72.4 | 57.9 | 54.3 | 85.6 | 79.8 | 86.3 | viability, T/C [16]: 78.7%; viability, T/C [17]: 66.5%; viability, T/C [18]: 58.9%; viability, T/C [19]: 90%; viability, T/C [20]: 91%; viability, T/C [21]: 82.9%; viability, T/C [22]: 83.1%; viability, T/C [23]: 79%; viability, T/C [24]: 49.6%; viability, T/C [25]: 75.5%; viability, T/C [26]: 7.27%; viability, T/C [27]: 13.8%; viability, T/C [28]: 12.1%; viability, T/C [29]: 64.3%; viability, T/C [30]: 4.17%
COc1cc2nccc(Oc3ccc(NC(=O)C4(C(=O)Nc5ccc(F)cc5)CC4)cc3)c2cc1OC + COc1cc2nc(C)nc(NC(C)c3cc(N)cc(C(F)(F)F)c3)c2cc1OC1CCOC1 | 7.32 | 4.89 | 2.84 | 0.747 | < 0.0316 | 105 | 112 | 98.2 | 93 | 63.8 | 44.8 | 111 | 102 | 83.1 | 90.9 | 51.1 | 37.2 | 94.6 | 107 | 90.6 | viability, T/C [16]: 91.5%; viability, T/C [17]: 45.6%; viability, T/C [18]: 28.5%; viability, T/C [19]: 74%; viability, T/C [20]: 87%; viability, T/C [21]: 74.7%; viability, T/C [22]: 41.4%; viability, T/C [23]: 4.72%; viability, T/C [24]: 0.2%; viability, T/C [25]: 1.73%; viability, T/C [26]: 0.3%; viability, T/C [27]: 0.4%; viability, T/C [28]: 1.03%; viability, T/C [29]: 0.15%; viability, T/C [30]: 0.23%
